Results on 20 molecules are retold here after EP0560267B1, “Isosteric antiherpes peptide derivatives” (BOEHRINGER INGELHEIM (CANADA) LTD., priority 1992, dated 1993).

As a reminder, the IC50 is the concentration that gives 50% inhibition. Lower therefore signals greater potency. By EC50 is commonly meant the concentration giving half of the maximal effect.

Assay [1] concerns the target T1, HSV-1 ribonucleotide reductase (Human herpesvirus 1, UniProt P08543).
T1 construct: HSV-1 ribonucleotide reductase (partially purified) was obtained from quiescent BHK-21/C13 cells infected with strain F HSV-1 virus; made in house; host or cells: quiescent BHK-21/C13 cells infected with HSV-1 strain F (virus-encoded enzyme, partially purified)
In words: Inhibition of Herpes Simplex Virus (HSV-1) ribonucleotide reductase. Type of assay: biochemical. The source says:
Inhibition of Herpes Simplex Virus (HSV-1) Ribonucleotide Reductase
• a) Preparation of Enzyme HSV-1 ribonucleotide reductase (partially purified) was obtained from quiescent BHK-21/C13 cells infected with strain F HSV-1 virus at 10 plaque forming units/cell as described by E.A. Cohen et al., J. Gen. Virol., 66, 733 (1985). • b) Assay and Results for Exemplified Peptides By following the procedure described by P. Gaudreau et al., J. Biol, Chem., 262, 12413 (1987), the assay results listed in the following Table I were obtained. The assay result for each exemplified compound of formula 1 is expressed as the concentration of the compound producing 50% of the maximal inhibition (IC50) of enzyme activity. The number of units of the enzyme preparation used in each assay was constant, based on the specific activity of the enzyme preparation. The results are relative to the activity obtained in control experiments without the test compound and represent the mean of four assays that varied less than 10% with each other.

The test system of assay [2] is HSV-2. In words: Inhibition of Herpes Simplex Virus (HSV-2) replication in cell culture. Type of assay: cell-based. The method, then:
Inhibition of Herpes Simplex Virus (HSV-2) Replication in Cell Culture
BHK-21/C13 cells (ATCC CCL 10) are incubated for two days in 150 cm^2 T-flasks (1.5 x 10^6 cells/flask) with alpha-MEM medium (Gibco Canada Inc., Burlington, Ontario, Canada) supplemented with 8% (v/v) fetal bovine serum (FBS, Gibco Canada Inc.). The cells are trypsinized and then transferred to fresh media in a 24 well plate to give 2.5 x 10^5 cells in 750 µL of media per well. The cells are incubated at 37° for a period of 6 h to allow them to adhere to the plate. Thereafter, the cells are washed once with 500 µL of alpha-MEM supplemented with 0.5% (v/v) FBS and then incubated with 750 µL of the same media (low serum) for 3 days. After this period of serum starvation, the low serum medium is removed and the cells are incubated in 500 µL of BBMT for 2 to 3 hours. {BBMT medium is described by P. Brazeau et al., Proc. Natl. Acad. Sci. USA, 79, 7909 (1982).} Thereafter, the cells are infected with HSV-2 (multiplicity of infection = 0.02 PFU/cell) in 100 µL of BBMT medium. (Note: The HSV-2 used was strain HG-52, see Y. Langelier and G. Buttin, J. Gen. Virol., 57, 21 (1981); the virus was stored at -80°.) Following 1 h of virus adsorption at 37°, the media is removed and the cells are washed with BBMT (3 X 250 µL). The cells in each well are incubated with or without (control) appropriate concentrations of the test agent dissolved in 200 µL of BBMT medium. After 29 h of incubation at 37°, the infected cells are harvested by first freezing the plate at -80°, followed by thawing. The cells in each well are scraped off the surface of the well with the help of the melting ice fragments. After complete thawing, the cell suspensions are collected and each well is rinsed with 150 µL of BBMT medium. The viral sample (suspension plus washing) is sonicated gently for 4 min at 4°. Cell debris are removed by centrifugation (1000 times gravity for 10 minutes at 4°). The supernatant is collected and stored at -80° until determination of viral titer.
Viral titration was performed by a modification of the colorimetric assay method of M. Langlois et al., Journal of Biological Standardization, 14, 201 (1986).
More specifically, in a similar manner as described above, BHK-21/C13 cells are trypsinized and transferred to fresh media in a 96 well microtiter plate to give 20,000 cells in 100 µL of media per well. The cells in the prepared plate are incubated at 37° for 2 h. During that time, the viral sample is thawed and sonicated gently for 15 seconds, and log dilutions of the sample are prepared (1/5 sequential: 50 µL of the sample plus 200 µL of BBMT medium, sequential dilutions being done with a multichannel pipette.
On completion of the above 2 hour incubation of the BHK-21/C13 cells, the media is replaced with alpha-MEM medium supplemented with 3% (v/v) FBS. The cells are now ready to be infected with the various sample dilutions of virus. Aliquots (50 µL) of the various dilutions are transferred into the appropriate wells of the plate. The resulting infected cells are incubated for 2 days at 37°. Then 50 µL of a 0.15% (v/v) solution of neutral red dye in Hank's Balanced Salt Solution (pH 7.3, Gibco Canada Inc.) is added to each well. The prepared plate is incubated for 45 min at 37°. Medium from each well is then aspirated and the cells are washed once with 200 µL of Hank's Balanced Salt Solution. […]

The mark [3] stands for this setting: Human alphaherpesvirus 2, Table IV, cell culture assay of example 11, read-out: EC50.
The mark [4] stands for this setting: Table I, partially purified enzyme from BHK-21/C13 cells infected with strain F HSV-1, mean of four assays.
The mark [5] stands for this setting: Human alphaherpesvirus 2, BHK21 (C13), 29 h, Table II, BHK-21/C13 cells, HSV-2 strain HG-52, 0.02 PFU/cell, 29 h incubation, read-out: EC50.
Setting [6] is: Human alphaherpesvirus 2, BHK21 (C13), 29 h.

Like-named read-outs stand apart in the source and are kept apart here.

T1 sequence (P08543 whole entry): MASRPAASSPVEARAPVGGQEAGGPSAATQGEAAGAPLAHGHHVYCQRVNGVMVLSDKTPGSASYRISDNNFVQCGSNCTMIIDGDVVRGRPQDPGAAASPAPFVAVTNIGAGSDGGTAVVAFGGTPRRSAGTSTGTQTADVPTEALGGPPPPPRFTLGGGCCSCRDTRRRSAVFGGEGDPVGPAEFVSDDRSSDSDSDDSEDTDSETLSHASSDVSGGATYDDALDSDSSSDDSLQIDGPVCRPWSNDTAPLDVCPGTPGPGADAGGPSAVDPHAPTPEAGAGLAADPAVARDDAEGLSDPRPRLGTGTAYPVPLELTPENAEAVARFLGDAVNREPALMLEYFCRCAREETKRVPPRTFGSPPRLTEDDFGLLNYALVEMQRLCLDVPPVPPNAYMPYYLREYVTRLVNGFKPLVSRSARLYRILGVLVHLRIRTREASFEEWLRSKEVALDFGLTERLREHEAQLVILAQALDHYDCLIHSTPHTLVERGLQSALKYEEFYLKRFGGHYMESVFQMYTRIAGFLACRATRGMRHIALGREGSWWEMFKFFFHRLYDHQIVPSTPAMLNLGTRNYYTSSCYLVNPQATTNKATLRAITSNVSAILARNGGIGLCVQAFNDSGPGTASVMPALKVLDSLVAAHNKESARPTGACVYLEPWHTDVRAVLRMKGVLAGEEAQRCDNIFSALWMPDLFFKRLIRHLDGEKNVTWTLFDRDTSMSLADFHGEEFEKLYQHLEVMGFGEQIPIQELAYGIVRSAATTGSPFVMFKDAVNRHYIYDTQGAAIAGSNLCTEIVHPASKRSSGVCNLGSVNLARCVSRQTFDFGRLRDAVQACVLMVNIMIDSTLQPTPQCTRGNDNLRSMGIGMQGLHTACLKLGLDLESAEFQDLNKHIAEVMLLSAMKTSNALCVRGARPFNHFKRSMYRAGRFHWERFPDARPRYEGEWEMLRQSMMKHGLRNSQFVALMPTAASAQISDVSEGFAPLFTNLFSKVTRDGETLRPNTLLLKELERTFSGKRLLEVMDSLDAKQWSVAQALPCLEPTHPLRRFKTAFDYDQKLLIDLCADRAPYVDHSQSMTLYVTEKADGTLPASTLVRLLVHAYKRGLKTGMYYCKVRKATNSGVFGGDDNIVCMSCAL

For the molecule `CCCC(CCC)NC(=O)NC(C(=O)CC(CC(=O)C(C)(C)C)C(=O)NC(C(=O)NN(CC)C(C)(C)C)C1(C(=O)O)CCCC1)C(C)(C)C` [Pr2CHNHC(O) / NHN(Et)CMe3, Pr2CHNHC(O)-Tbg-CH2-(R)-CH(CH2C(O)CMe3)C(O)-Asp(cyPn)-NHN(Et)CMe3], the IC50 in assay [1] (Table IV, assay of example 10) came to 0.22 µM. The 50% effective concentration (EC50) in assay [2] (setting [3]) was 80 µM.
Consider `CCCC(C)(CCC)NC(=O)NC(C(=O)CC(CC(=O)C(C)(C)C)C(=O)NC(C(=O)NCC(C)(C)CC)C1(C(=O)O)CCCC1)C(C)(C)C` [MePr2CHNHC(O) / NHCH2CMe2Et, MePr2CHNHC(O)-Tbg-CH2-(R)-CH(CH2C(O)CMe3)C(O)-Asp(cyPn)-NHCH2CMe2Et], for which it took 0.36 µM to reach half-maximal inhibition in assay [1] (Table IV, assay of example 10) (IC50). The molecule also yielded an EC50 in assay [2] (Human alphaherpesvirus 2, Table IV, cell culture assay of example 11) of 29 µM.
For the molecule `CCC(CC)NC(=O)NC(C(=O)CC(CC(=O)C(C)(C)C)C(=O)NC(C(=O)NCC(C)(C)C)C(C)C(=O)O)C(C)(C)C` [Et2CHNHC(O)-Tbg-CH2-(R)-CH(CH2C(O)-CMe3)C(O)-Asp{(R)-Me}-NHCH2CMe3], in assay [1] (setting [4]), it took 0.2 µM to reach half-maximal inhibition (IC50).
Molecule `CCCC(CCC)NC(=O)NC(C(=O)CC(CC(=O)C(C)(C)C)C(=O)NC(C(=O)NC(CC(C)(C)C)C(=O)O)C1(C(=O)O)CCCC1)C(C)(C)C` [Pr2CHNHC(O)-Tbg-CH2-(R)-CH(CH2C(O)-CMe3)C(O)-Asp(cyPn)-γMeLeu-OH] yielded a 50% inhibitory concentration (IC50) in assay [1] (setting [4]) of 0.15 µM.
As for `CCCC1(NC(=O)N[C@H](C(=O)C[C@@H](CC(=O)C(C)(C)C)C(=O)N[C@H](C(=O)NCC(C)(C)C)C2(C(=O)O)CCCC2)C(C)(C)C)CCCC1` [(1-propylcyclopentyl)aminocarbonyl-Tbg-CH2-(R)-CH(CH2C(O)CMe3)C(O)-Asp(cyPn)-NHCH2CMe3], in assay [2] (setting [5]), the EC50 is 40 µM.
Molecule `CC(C)C(C(=O)NC(C(=O)CC(CC(=O)C(C)(C)C)C(=O)NC(C(=O)NCC(C)(C)C)C1(C(=O)O)CCCC1)C(C)(C)C)N(C)C(=O)CCc1ccccc1` [PhCH2CH2C(O)-(N-Me)Val-Tbg-CH2-(R)-CH(CH2C(O)CMe3)C(O)-Asp(cyPn)-NHCH2CMe3] showed an IC50 in assay [1] (setting [4]) of 0.33 µM.
Molecule `CC(C)[C@@H](C(=O)N[C@H](C(=O)C[C@@H](CC(=O)C(C)(C)C)C(=O)N[C@H](C(=O)N[C@@H](CC(C)(C)C)C(N)=O)C1(C(=O)O)CCCC1)C(C)(C)C)N(C)C(=O)CCc1ccccc1` [PhCH2CH2C(O)-(N-Me)Val-Tbg-CH2-(R)-CH(CH2C(O)CMe3)C(O)-Asp(cyPn)-γMeLeu-NH2] registered an EC50 in assay [2] (setting [6]) of 60 µM.
As to “Pr2CHNHC(O)-Tbg-CH2-(R)-CH-(CH2C(O)CH2CMe3)C(O)-Asp(cyPn)-Leu-OH”, the EC50 in assay [2] (Table V, cell culture assay of example 11, read-out: EC50) was found to be 80 µM.
Consider `CCC(CC)NC(=O)NC(C(=O)CC(CC(=O)C(C)(C)C)C(=O)NC(C(=O)NC(CC(C)(C)C)C(=O)O)C1(C(=O)O)CCCC1)C(C)(C)C` [Et2CHNHC(O)-Tbg-CH2-(R)-CH(CH2C(O)-CMe3)C(O)-Asp(cyPn)-γMeLeu-OH], for which the concentration for half-maximal inhibition (IC50) in assay [1] (setting [4]) stood at 0.12 µM.
For the molecule `CCC(CC)NC(=O)NC(C(=O)CC(CC(=O)C(C)(C)C)C(=O)NC(C(=O)NC(CC(C)(C)C)C(N)=O)C1(C(=O)O)CCCC1)C(C)(C)C` [Et2CHNHC(O)-Tbg-CH2-(R)-CH(CH2C(O)-CMe3)C(O)-Asp(cyPn)-γMeLeu-NH2], the IC50 in assay [1] (setting [4]) amounted to 0.22 µM.
In assay [1] (setting [4]), `CC(C)C(C(=O)NC(C(=O)CC(CC(=O)C(C)(C)C)C(=O)NC(C(=O)NCC(C)(C)C)C(C)C(=O)O)C(C)(C)C)N(C)C(=O)CCc1ccccc1` [PhCH2CH2C(O)-(N-Me)Val-Tbg-CH2-(R)-CH(CH2C(O)CMe3)C(O)-Asp{(R)-Me}-NHCH2CMe3] registered an IC50 of 0.33 µM.
For the molecule `CCCC(CCC)NC(=O)N[C@H](C(=O)C[C@@H](CC(=O)C1CCCC1)C(=O)N[C@H](C(=O)NCC(C)(C)C)C1(C(=O)O)CCCC1)C(C)(C)C` [Pr2CHNHC(O)-Tbg-CH2-(R)-CH{CH2C(O)(cyclopentyl)}C(O)-Asp(cyPn)-NHCH2CMe3], in assay [2] (setting [5]), the EC50 turned out to be 30 µM.
`CCCC(CCC)NC(=O)NC(C(=O)CC(CC(=O)C(C)(C)C)C(=O)NC(C(=O)NC1CCCCC1C)C1(C(=O)O)CCCC1)C(C)(C)C` [Pr2CHNHC(O) / trans-NH-(2-methyl-cyclohexyl)] [Pr2CHNHC(O)-Tbg-CH2-(R)-CH(CH2C(O)CMe3)C(O)-Asp(cyPn)-trans-NH-(2-methyl-cyclohexyl)]: the EC50 in assay [2] (Table IV, cell culture assay of example 11, read-out: EC50) came to 60 µM.
`CCCC(CC)(CCC)NC(=O)N[C@H](C(=O)C[C@@H](CC(=O)C(C)(C)C)C(=O)N[C@H](C(=O)NCC(C)(C)C)C1(C(=O)O)CCCC1)C(C)(C)C` [EtPr2CNHC(O) / NHCH2CMe3, EtPr2CNHC(O)-Tbg-CH2-(R)-CH(CH2C(O)CMe3)C(O)-Asp(cyPn)-NHCH2CMe3]: the EC50 in assay [2] (setting [3]) is 16 µM.
As for `CC(C)C(C(=O)NC(C(=O)CC(CC(=O)C1CCCC1)C(=O)NC(C(=O)NCC(C)(C)C)C1(C(=O)O)CCCC1)C(C)(C)C)N(C)C(=O)CCc1ccccc1` [PhCH2CH2C(O)-(N-Me)Val-Tbg-CH2-(R)-CH{CH2C(O)-(cyclopentyl)}C(O)-Asp-(cyPn)-NHCH2CMe3], half-maximal inhibition in assay [1] (setting [4]) (IC50) required 0.32 µM.
As for `CC(C)[C@@H](C(=O)N[C@H](C(=O)C[C@@H](CC(=O)C(C)(C)C)C(=O)N[C@H](C(=O)N[C@@H](CC(C)(C)C)C(=O)O)C1(C(=O)O)CCCC1)C(C)(C)C)N(C)C(=O)CCc1ccccc1` [PhCH2CH2C(O)-(N-Me)Val-Tbg-CH2-(R)-CH(CH2C(O)CMe3)C(O)-Asp(cyPn)-γMeLeu-OH], the EC50 in assay [2] (setting [6]) came to 65 µM.
Turning to `CC(C)[C@@H](C(=O)N[C@H](C(=O)C[C@@H](CC(=O)C(C)(C)C)C(=O)N[C@H](C(=O)N[C@H](CO)CC(C)(C)C)C1(C(=O)O)CCCC1)C(C)(C)C)N(C)C(=O)CCc1ccccc1` [Title Compound of Example 6, PhCH2CH2C(O)-(N-Me)Val-Tbg-CH2(R)-CH(CH2C(O)CMe3)C(O)-Asp(cyPn)-γMeLeucinol], the EC50 in assay [2] (Human alphaherpesvirus 2, BHK21 (C13)) was 19 µM; in assay [2] (setting [6]), 15 µM.
`CCCC(CCC)NC(=O)NC(C(=O)CC(CC(=O)C(C)(C)C)C(=O)NC(C(=O)NC1CCCCC1C)C1(C(=O)O)CCCC1)C(C)(C)C` [Pr2CHNHC(O)-Tbg-CH2-(R)-CH(CH2C(O)CMe3)C(O)-Asp(cyPn)-trans-NH-(2-methyl-cyclohexyl)] registered an IC50 in assay [1] (Table IV, assay of example 10) of 0.69 µM.
On to `Nc1nc2c(ncn2COCCO)c(=O)[nH]1` [acyclovir, reference compound], for which, in assay [2] (Human alphaherpesvirus 2, BHK21 (C13), Table III, agent alone, BHK-21/C13 cells, HSV-2 strain HG-52, read-out: EC50), the EC50 was found to be 3.5 µM. Further, in assay [2] (combination of acyclovir with the title peptide of example 6, EC50's lower than acyclovir alone, isobole method, Figure 1), the “action of the combination of acyclovir and the peptide of formula 1” value is given as “synergistic action”.
In assay [1] (setting [4]), `CCC(CC)NC(=O)NC(C(=O)CC(CC(=O)C(C)(C)C)C(=O)NC(C(=O)NC(CO)CC(C)(C)C)C1(C(=O)O)CCCC1)C(C)(C)C` [Title Compound of Example 7, Et2CHNHC(O)-Tbg-CH2-(R)-CH(CH2C(O)CMe3)CO-Asp(cyPn)-γMeLeucinol] showed an IC50 of 0.15 µM.
